The source of these data is PMC12387469, “Dolabellane Diterpenoids from Soft Coral Clavularia viridis with Anti-Inflammatory Activities” (Marine Drugs, 2025).

A word on the CC50: it is the concentration at which the toxic effect on the cells reaches its halfway point. As usually defined, the inhibition is the relative decrease from the control value, in per cent. Usually IC50 stands for the midpoint of a concentration-inhibition curve.

A short description of data set [1]: Cytotoxic effect in BV-2 cells, Cell Counting Kit-8 (CCK-8) assay. Type of data set: cell-based. To be noted: mouse, BV-2 microglia cells. On the procedure:
Cells were pretreated with or without compounds for 2 h and then induced with 40 μg/mL LPS for another 48 h. […] The absorbance was then measured at a wavelength of 450 nm with a microplate reader (Thermo Fisher Scientific, Marietta, OH, USA). The cell proliferation was expressed as a ratio of control.
Background: Formazan colour is commonly taken as a measure of viable cells.

The test system of data set [2] is NO production in LPS-stimulated BV2 cells. Kind of data set: Inhibition of NO production in LPS-stimulated BV2 cells (Griess reagent). To be noted: Mus musculus; for inhibition at 20 µM: BV-2, read-out: NO Inhibitory Activity % Inhibition (20 μM); for IC50: BV-2, read-out: NO Inhibitory Activity IC50.
Method: To evaluate the anti-inflammatory effect, all compounds were screened on an LPS-stimulated BV2 model to determine the inhibitory effects against NO production [21].
The BV-2 mouse microglia cell line was purchased from the Cell Bank of Shanghai Institute of Biochemistry and Cell Biology, Chinese Academy of Sciences (Shanghai, China), and was cultured in Dulbecco’s modified Eagle medium (DMEM, Gibco Invitrogen Corp., Suzhou, China) supplemented with 10% fetal bovine serum (FBS), 100 units/mL penicillin, and 100 mg/mL streptomycin. The cells were placed at 37 °C in a humidified incubator containing 5% CO2.
The inhibitory activity of the isolated compounds toward NO production was determined using the Griess reagent system (Beyotime). Cells were cultured in each well of 96-well plates at a density of 5 × 10^4 cells/well with 100 mL of DMEM for 24 h. Test samples dissolved in DMSO and diluted with DMEM were added, as well as 2 mg/mL LPS as a stimulus. The final drug concentration was 50 μM with 1% DMSO. Wells treated with only LPS served as model controls, and wells treated with neither LPS nor test samples served as blank controls (all contained 1% DMSO). After 24 h incubation, half of the medium (50 mL) in each well was harvested.

Compound `CC1=C2C(O)CC3(C)CCC(C)CC(=O)CC(C)CC(OC1=O)C23` (stereo not shown) [Compound 1, Clavirolide W] gave a CC50 at 50 h in data set [1] greater than 50 µM. Moreover, the inhibition at 20 µM in data set [2] worked out at 15.1 ± 2.4%.

Turning to `CC1=C2CCC3(C)CCC(C)CC(=O)CC(C)CC(OC1=O)C23OO` (stereo not shown) [Compound 2, Clavirolide X], the CC50 at 50 h in data set [1] is greater than 50 µM. Besides, the inhibition at 20 µM in data set [2] turned out to be 36.4 ± 1.7%.

Turning to `CC1=CC(=O)C=C(C)CC2OC(=O)C(C)=C3CCC(C)(CC1)C32` (stereo not shown) [Compound 3, Clavirolide Y], the CC50 at 50 h in data set [1] was greater than 50 µM. Also, in data set [2], the inhibition at 20 µM is 42.7 ± 3.5% and the IC50 amounted to 27 ± 0.6 µM.

In data set [1], `CC1=CCC2(C)CCC3=C(C)C(=O)OC(CC(C)CC(=O)C1)C32OO` (stereo not shown) [Compound 4, Clavirolide Z] registered a cytotoxic concentration (CC50) at 50 h greater than 50 µM. Moreover, the inhibition at 20 µM in data set [2] came to 29 ± 2.8%.

`CC1=CC(OO)C2(C)CCC3=C(C)C(=O)OC(CC(C)CC(=O)C1)C32` (stereo not shown) [Compound 5, clavularol A]: the CC50 at 50 h in data set [1] is greater than 50 µM. The inhibition at 20 µM in data set [2] amounted to 26.8 ± 3.6%.

`CC1=CC(=O)CC(C)=CC(O)C2C(C(C)(C)OO)=CCC2(C)CC1` (stereo not shown) [Compound 6, clavularol B] registered a CC50 at 50 h in data set [1] greater than 50 µM. The inhibition at 20 µM in data set [2] was 14.6 ± 1.2%.

In the case of `C=C1CCC=C(C)CC(O)C2C(C)(CC1)CC1OC12C(C)(C)O` (stereo not shown) [Compound 7, clavularol C], the CC50 at 50 h in data set [1] was greater than 50 µM. In addition, in data set [2], the inhibition at 20 µM turned out to be 24 ± 3.8%.

On to `C=C1CC[C@@H]2O[C@@]2(C)C[C@@H](O)C2=C(C(C)(C)O)CC[C@@]2(C)CC1` [Compound 8, Clavularol D], for which the CC50 at 50 h in data set [1] is greater than 50 µM. The inhibition at 20 µM in data set [2] amounted to 35.9 ± 4.2%.

`C=C1CCC2OC2(C)CC(O)C2=C(C(C)(C)O)CCC2(C)CC1` (stereo not shown) [Compound 9, Clavularol E] had a CC50 at 50 h in data set [1] greater than 50 µM. Besides, in data set [2], the inhibition at 20 µM is 12.6 ± 2.6%.

In turn, `C=C1CC[C@@H]2O[C@@]2(C)C[C@@H](O)[C@@H]2C(C(C)(C)O)=CC[C@@]2(C)CC1` [Compound 10, clavularol F] gave a CC50 at 50 h in data set [1] greater than 50 µM. For the same compound, in data set [2], the inhibition at 20 µM was found to be 68.9 ± 3.6% and the IC50 was determined as 18.3 ± 0.6 µM.

As to `C=C1CC[C@H]2O[C@]2(C)C[C@@H](O)[C@H]2[C@](C)(CC1)CC[C@@]2(O)C(=C)C` [Compound 11, Clavularol G], in data set [1], the CC50 at 50 h is greater than 50 µM. For the same compound, the inhibition at 20 µM in data set [2] is 18.4 ± 2.8%.

Compound `C=C1CCC(O)C(C)=CC2OC(C)(C)C3=C2C(C)(CC1)CC3` (stereo not shown) [Compound 12, Clavularol H] gave a CC50 at 50 h in data set [1] greater than 50 µM. For the same compound, in data set [2], the inhibition at 20 µM was 48.8 ± 4.2% and the IC50 stood at 20.3 ± 0.3 µM.

On to `C=C1CCC=C(C)CC(O)C2C(C(C)(C)O)=CCC2(C)CC1` (stereo not shown) [Compound 13, clavularinlide E], for which the half-maximal cytotoxic concentration (CC50) at 50 h in data set [1] was greater than 50 µM. In data set [2], the inhibition at 20 µM came out at 45.6 ± 3.5% and the IC50 was 20.3 ± 0.3 µM.

In data set [1], `C=C1CCC=C(C)CC(O)C2=C(C(C)(C)O)CCC2(C)CC1` (stereo not shown) [Compound 14, clavudiol A] returned a cytotoxic concentration (CC50) at 50 h greater than 50 µM. The inhibition at 20 µM in data set [2] worked out at 25.4 ± 2.4%.

In data set [1], `CC1=C2CC[C@@]3(C)CC[C@H](C)CC(=O)C[C@@H](C)C[C@@H](OC1=O)[C@H]23` [Compound 15, clavirolide C] displayed a CC50 at 50 h greater than 50 µM. For the same compound, in data set [2], the inhibition at 20 µM was determined as 48.3 ± 3.6% and the IC50 amounted to 23.4 ± 0.4 µM.

Regarding `[H]/N=C(/NC)NCCC[C@H](N)C(=O)O` [L-NMMA, L-NG-monomethyl arginine, reference compound], in data set [2], the inhibition at 20 µM worked out at 76.7 ± 4.2% and the IC50 came out at 17.8 ± 0.6 µM.
